In series [1] the target is Rho-associated protein kinase 2 (Homo sapiens, UniProt O75116). As to the kind of experiment: Inhibition of recombinant human N-terminal GST-tagged ROCK2 catalytic domain (1 to 553 residues) expressed in baculovirus expression system using STK 2-biotin as substrate measured after 60 mins by HTRF/TR-FRET assay. Background: Time-resolved FRET reads energy transfer from a long-lived donor to a nearby acceptor.

Series [2] deals with Protein kinase C alpha type (Homo sapiens, UniProt P17252). The series is described as follows: Inhibition of human PKCalpha active using MBP as substrate after 60 mins in presence of [gamma-32]ATP by scintillation counting.
In series [3] the target is CYP3A4 (Homo sapiens, UniProt P08684). The series is described as follows: Inhibition of CYP3A4 (unknown origin) at 10 uM. It counts as ADME.
CYP3A4, sequence (P08684 whole entry): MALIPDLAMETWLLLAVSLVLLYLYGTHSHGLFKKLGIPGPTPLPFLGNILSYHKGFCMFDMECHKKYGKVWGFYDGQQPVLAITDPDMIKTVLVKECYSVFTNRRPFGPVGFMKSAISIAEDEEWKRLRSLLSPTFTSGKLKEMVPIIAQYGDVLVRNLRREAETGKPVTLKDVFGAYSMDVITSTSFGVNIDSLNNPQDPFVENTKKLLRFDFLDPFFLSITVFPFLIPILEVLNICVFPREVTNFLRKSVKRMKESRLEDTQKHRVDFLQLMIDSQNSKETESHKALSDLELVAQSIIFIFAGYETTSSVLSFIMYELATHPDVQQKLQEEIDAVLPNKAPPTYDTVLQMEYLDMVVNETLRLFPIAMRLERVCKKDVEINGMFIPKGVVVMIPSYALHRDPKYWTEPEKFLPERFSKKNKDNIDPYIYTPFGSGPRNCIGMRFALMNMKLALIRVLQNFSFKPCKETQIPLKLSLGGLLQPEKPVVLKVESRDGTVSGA
Series [4] deals with T1, Rhodopsin kinase GRK1 (Homo sapiens, UniProt Q15835).
T1 sequence (Q15835 whole entry): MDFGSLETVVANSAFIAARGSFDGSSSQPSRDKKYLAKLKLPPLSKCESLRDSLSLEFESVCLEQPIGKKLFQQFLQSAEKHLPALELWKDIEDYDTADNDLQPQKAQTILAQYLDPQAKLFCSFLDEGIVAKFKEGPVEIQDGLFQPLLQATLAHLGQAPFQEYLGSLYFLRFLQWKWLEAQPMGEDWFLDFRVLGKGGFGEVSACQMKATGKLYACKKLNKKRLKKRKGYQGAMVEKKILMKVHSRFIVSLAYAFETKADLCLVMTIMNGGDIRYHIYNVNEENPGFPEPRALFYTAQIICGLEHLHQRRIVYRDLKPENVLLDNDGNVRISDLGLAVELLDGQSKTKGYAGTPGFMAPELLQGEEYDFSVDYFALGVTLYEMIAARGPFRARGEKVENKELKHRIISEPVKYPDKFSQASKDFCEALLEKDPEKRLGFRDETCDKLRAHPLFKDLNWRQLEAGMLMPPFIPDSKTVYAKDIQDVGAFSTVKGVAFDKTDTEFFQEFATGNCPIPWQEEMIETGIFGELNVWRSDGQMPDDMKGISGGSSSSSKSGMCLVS
As to the kind of experiment: Inhibition of recombinant human GST-tagged GRK1 expressed in baculovirus infected fall armyworm Sf9 cells after 60 mins by LanthaScreen eu kinase binding assay.

Series [5] addresses T2, G protein-coupled receptor kinase 3 (Homo sapiens, UniProt P35626).
T2 sequence (P35626 whole entry): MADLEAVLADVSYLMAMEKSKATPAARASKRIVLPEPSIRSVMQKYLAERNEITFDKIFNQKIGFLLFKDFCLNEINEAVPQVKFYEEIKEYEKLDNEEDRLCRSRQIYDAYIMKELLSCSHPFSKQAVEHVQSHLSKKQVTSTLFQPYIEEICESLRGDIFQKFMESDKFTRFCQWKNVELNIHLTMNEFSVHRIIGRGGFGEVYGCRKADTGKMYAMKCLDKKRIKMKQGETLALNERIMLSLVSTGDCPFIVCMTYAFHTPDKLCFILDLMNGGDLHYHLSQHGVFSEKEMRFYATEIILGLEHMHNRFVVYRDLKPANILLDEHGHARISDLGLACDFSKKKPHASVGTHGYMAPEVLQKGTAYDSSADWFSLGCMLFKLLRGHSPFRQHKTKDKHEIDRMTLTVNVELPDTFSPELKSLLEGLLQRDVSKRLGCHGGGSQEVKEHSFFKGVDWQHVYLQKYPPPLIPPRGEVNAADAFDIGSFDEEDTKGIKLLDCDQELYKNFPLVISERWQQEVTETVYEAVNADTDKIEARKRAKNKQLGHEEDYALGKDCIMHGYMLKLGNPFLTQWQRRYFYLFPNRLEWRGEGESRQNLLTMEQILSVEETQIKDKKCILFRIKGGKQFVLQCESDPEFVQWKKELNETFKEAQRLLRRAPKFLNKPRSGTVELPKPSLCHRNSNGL
As to the kind of experiment: Inhibition of recombinant human full length GST-tagged GRK3 expressed in baculovirus using ulight topo2alpha as substrate preincubated for 60 mins followed by substrate addition measured after 10 mins by Lance TR-FRET assay.

Series [6] has as its target T3, Rhodopsin kinase GRK7 (Homo sapiens, UniProt Q8WTQ7).
T3 sequence (Q8WTQ7 whole entry): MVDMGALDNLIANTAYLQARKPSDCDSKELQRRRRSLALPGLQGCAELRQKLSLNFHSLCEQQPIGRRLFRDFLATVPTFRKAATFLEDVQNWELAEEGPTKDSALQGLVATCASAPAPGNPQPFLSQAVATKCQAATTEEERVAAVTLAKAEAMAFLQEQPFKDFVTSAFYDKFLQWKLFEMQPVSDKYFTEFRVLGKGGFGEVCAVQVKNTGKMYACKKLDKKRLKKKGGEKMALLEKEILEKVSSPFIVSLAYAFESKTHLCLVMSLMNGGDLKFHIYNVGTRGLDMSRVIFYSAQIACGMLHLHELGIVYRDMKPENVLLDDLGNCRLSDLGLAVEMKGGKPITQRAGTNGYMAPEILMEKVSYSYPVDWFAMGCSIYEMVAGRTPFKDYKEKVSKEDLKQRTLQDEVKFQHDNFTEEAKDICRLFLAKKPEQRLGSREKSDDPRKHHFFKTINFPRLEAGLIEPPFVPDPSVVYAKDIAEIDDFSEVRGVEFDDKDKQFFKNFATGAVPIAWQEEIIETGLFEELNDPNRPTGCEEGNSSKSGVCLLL
As to the kind of experiment: Inhibition of recombinant human full length GST-tagged GRK7 expressed in baculovirus using ulight topo2alpha as substrate preincubated for 60 mins followed by substrate addition measured after 10 mins by Lance TR-FRET assay.

Series [7] has as its target G protein-coupled receptor kinase 6 (Homo sapiens, UniProt P43250). The series is described as follows: Inhibition of recombinant human full length GST-tagged GRK6 expressed in baculovirus using ulight topo2alpha as substrate preincubated for 60 mins followed by substrate addition measured after 10 mins by Lance TR-FRET assay.
Series [8] addresses G protein-coupled receptor kinase 5 (Homo sapiens, UniProt P34947).
Description: Inhibition of recombinant human full length GST-tagged GRK5 expressed in baculovirus using ulight topo2alpha as substrate preincubated for 60 mins followed by substrate addition measured after 10 mins by Lance TR-FRET assay

G protein-coupled receptor kinase 6, sequence (P43250 whole entry): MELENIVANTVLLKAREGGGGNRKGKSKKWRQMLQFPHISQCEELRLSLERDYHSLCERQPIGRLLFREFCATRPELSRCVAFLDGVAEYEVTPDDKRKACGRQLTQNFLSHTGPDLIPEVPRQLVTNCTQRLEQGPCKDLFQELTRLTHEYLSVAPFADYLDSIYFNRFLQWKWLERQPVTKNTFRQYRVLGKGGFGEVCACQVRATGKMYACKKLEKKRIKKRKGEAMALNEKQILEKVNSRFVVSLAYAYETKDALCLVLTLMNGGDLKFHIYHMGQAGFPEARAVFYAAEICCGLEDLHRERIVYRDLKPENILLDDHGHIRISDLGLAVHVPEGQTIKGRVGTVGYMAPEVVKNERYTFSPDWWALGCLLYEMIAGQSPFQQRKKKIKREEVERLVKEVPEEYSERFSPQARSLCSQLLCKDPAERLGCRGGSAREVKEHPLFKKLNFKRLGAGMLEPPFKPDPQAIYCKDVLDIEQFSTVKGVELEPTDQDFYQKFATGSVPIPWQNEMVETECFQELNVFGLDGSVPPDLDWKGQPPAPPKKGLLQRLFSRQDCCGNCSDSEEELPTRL
G protein-coupled receptor kinase 5, sequence (P34947 whole entry): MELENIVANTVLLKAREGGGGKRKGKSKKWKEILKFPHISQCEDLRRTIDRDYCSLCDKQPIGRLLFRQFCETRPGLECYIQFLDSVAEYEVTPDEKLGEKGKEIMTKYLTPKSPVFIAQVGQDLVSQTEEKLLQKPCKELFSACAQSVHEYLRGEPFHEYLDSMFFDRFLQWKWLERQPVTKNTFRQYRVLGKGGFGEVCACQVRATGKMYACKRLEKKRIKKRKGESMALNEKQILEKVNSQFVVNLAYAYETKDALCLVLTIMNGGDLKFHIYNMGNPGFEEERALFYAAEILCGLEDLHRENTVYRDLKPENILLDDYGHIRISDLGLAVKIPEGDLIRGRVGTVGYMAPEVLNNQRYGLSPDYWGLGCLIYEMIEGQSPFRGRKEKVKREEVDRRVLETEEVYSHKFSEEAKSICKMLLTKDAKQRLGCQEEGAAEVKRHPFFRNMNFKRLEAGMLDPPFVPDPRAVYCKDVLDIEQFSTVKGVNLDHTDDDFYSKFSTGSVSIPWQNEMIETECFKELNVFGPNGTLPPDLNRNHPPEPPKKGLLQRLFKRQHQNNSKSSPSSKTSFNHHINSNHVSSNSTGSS
Rho-associated protein kinase 2, sequence (O75116 whole entry, the tested form may be a part): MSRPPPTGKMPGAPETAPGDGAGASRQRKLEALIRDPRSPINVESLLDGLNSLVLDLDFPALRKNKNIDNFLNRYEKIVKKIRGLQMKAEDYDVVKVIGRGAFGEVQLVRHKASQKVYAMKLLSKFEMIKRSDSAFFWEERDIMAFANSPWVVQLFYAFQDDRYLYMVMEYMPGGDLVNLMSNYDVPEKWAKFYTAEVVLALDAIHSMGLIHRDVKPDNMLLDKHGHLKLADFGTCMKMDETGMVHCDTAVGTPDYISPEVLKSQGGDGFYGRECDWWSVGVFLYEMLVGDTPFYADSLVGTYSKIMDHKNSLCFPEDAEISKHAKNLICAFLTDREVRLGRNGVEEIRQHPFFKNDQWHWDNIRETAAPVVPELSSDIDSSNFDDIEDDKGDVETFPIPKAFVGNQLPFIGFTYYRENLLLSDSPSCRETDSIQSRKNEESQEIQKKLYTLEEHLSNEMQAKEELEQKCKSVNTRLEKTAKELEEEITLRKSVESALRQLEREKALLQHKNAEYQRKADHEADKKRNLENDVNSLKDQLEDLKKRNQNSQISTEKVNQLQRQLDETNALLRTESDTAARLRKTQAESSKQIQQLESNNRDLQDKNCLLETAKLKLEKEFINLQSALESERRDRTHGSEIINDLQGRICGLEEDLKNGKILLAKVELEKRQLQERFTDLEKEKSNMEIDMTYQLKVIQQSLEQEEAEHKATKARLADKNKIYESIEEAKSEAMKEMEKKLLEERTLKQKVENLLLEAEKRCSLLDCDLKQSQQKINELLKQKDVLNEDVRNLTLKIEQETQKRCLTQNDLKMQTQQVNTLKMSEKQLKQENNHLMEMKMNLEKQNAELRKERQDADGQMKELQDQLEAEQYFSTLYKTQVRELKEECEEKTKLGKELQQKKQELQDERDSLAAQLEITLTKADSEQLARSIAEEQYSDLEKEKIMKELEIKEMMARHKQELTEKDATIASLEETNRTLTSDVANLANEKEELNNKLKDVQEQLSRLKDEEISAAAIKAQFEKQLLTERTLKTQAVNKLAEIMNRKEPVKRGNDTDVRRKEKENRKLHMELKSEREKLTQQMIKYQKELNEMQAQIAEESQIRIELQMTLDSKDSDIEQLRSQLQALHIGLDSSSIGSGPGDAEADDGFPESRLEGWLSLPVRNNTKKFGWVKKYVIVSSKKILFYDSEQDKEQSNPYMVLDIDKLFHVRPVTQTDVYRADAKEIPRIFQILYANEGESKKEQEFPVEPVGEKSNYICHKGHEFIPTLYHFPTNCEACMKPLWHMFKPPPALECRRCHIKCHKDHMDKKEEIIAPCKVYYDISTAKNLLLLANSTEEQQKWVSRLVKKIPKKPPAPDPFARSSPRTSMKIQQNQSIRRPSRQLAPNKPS

What is called IC50 is the midpoint of a concentration-inhibition curve. For orientation: inhibition means the share of the control response that was lost under treatment. With `CCCn1c(CNc2cccc(C(=O)NCc3c(F)cccc3F)c2)nnc1-c1ccncn1`, the half-inhibitory concentration (IC50) in series [1] amounted to 190 nM; in series [2] it was 250 nM. Also, 10 µM produced 51% inhibition in series [3].

Turning to `COc1cccc(CNC(=O)c2cccc(NCc3nnc(-c4ccncc4)[nH]3)c2)c1`, the concentration for half-maximal inhibition (IC50) in series [1] stood at 20 nM; in series [2], 3200 nM. For the same molecule, the inhibition at 10 µM in series [3] was found to be 95%.

As to `Cn1c(CNc2cccc(C(=O)NCc3ccccc3Cl)c2)nnc1-c1ccncc1`, the half-maximal inhibitory concentration (IC50) in series [1] was 1600 nM; in series [2], 8700 nM. Further, the inhibition at 10 µM in series [3] amounted to 54%.

With `COCCn1c(CNc2cccc(C(=O)NCc3ccccc3)c2)nnc1-c1ccncc1`, the IC50 in series [1] was 320 nM; in series [2], 7400 nM. Moreover, the inhibition at 10 µM in series [3] stood at 57%.

Turning to `Cc1c(-c2ccncc2)n[nH]c1CNc1cccc(C(=O)NCc2ccccc2)c1`, the IC50 in series [1] was 23 nM; in series [2], 4800 nM; in series [4], above 30000 nM; in series [5], 4.3 nM; in series [6], 18000 nM; in series [7], above 30000 nM. In series [8], this molecule displayed a half-inhibitory concentration (IC50) above 30000 nM. For the same molecule, the inhibition at 10 µM in series [3] is 96%.

In the case of `O=C(NCc1ccccc1C(F)(F)F)c1cccc(NCc2nnc(-c3ccncc3)n2CCO)c1`, the half-maximal inhibitory concentration (IC50) stood at 320 nM in series [1] and 7600 nM in series [2]. This molecule gave an inhibition at 10 µM in series [3] of 79%.

Take `O=C(NCc1ccccc1)c1cccc(NCc2csc(-c3ccncc3)n2)c1`: the values for the IC50 in series [1] and in series [2] were 120 nM and above 10000 nM, respectively. The inhibition at 10 µM in series [3] was determined as 87%.

`O=C(NCc1ccccc1C(F)(F)F)c1cccc(NCc2nnc3n2CCOc2cnccc2-3)c1`: the IC50 was 49 nM in series [1]; 270 nM in series [4]; 0.65 nM in series [5]; 2400 nM in series [6]; above 30000 nM in series [7]; 1500 nM in series [8]. Testing at 10 µM in series [3] gave an inhibition of 83%.

For the molecule `COc1ccccc1CNC(=O)c1cccc(NCc2nnc(-c3ccncc3)n2C)c1`, the half-inhibitory concentration (IC50) in series [1] is 1600 nM; in series [2], above 10000 nM. At 10 µM the inhibition in series [3] was 60%.

For the molecule `O=C(NCc1ccccc1Cl)c1cccc(NCc2nnc(-c3ccncc3)[nH]2)c1`, the IC50 in series [1] was determined as 50 nM; in series [2], 1100 nM. Also, at 10 µM the inhibition in series [3] was 97%.

On to `O=C(NCc1ccccc1)c1cccc(NCc2nc(-c3ccncc3)no2)c1`, for which the IC50 in series [1] is 350 nM; in series [2], above 10000 nM. The molecule also came in with an inhibition at 10 µM in series [3] of 86%.

As to `O=C(NCc1ccccc1)c1cccc(NCc2nc(-c3ccncc3)n[nH]2)c1`, the concentration for half-maximal inhibition (IC50) in series [1] was 24 nM; in series [2] it was 6300 nM; in series [4], above 30000 nM; in series [5], 1.8 nM; in series [6], 8800 nM; in series [7], above 30000 nM. In series [8], the IC50 came out at 5700 nM. In addition, at 10 µM the inhibition in series [3] was 91%.

With `COc1ccc(CNC(=O)c2cccc(NCc3nnc(-c4ccncc4)[nH]3)c2)cc1`, the 50% inhibitory concentration (IC50) in series [1] was 27 nM; in series [2] it was 7100 nM. Besides, testing at 10 µM in series [3] gave an inhibition of 91%.

`CCn1c(CNc2cccc(C(=O)NCc3ccccc3)c2)nnc1-c1ccncc1`: the IC50 is 76 nM in series [1]; 2900 nM in series [2]; above 30000 nM in series [4]; 3.3 nM in series [5]; above 30000 nM in series [6]; above 30000 nM in series [7]. For the same molecule, the inhibition at 10 µM in series [3] is 50%.

As for `CCCn1c(CNc2cccc(C(=O)NCc3ccccc3C(F)(F)F)c2)nnc1-c1ccncn1`, the IC50 came to 140 nM in series [1] and 1200 nM in series [2]. This molecule also gave an inhibition at 10 µM in series [3] of 81%.

For `CC(C)n1c(CNc2cccc(C(=O)NCc3ccccc3)c2)nnc1-c1ccncc1`, the IC50 came out at 260 nM in series [1] and 4800 nM in series [2]. In addition, in series [3], the inhibition at 10 µM is 50%.

For the molecule `Cn1c(CNc2cccc(C(=O)NCc3ccccc3C(F)(F)F)c2)nnc1-c1ccncn1`, the IC50 is 720 nM in series [1] and above 10000 nM in series [2]. For the same molecule, testing at 10 µM in series [3] gave an inhibition of 63%.

Consider `CNC(=O)c1cccc(NCc2nc(-c3ccncc3)n[nH]2)c1`, for which the half-inhibitory concentration (IC50) in series [1] was 220 nM; in series [2], above 10000 nM; in series [4], above 30000 nM; in series [5] it was 21 nM; in series [6], above 30000 nM; in series [7], above 30000 nM. The molecule also showed an IC50 in series [8] above 30000 nM. This molecule showed an inhibition at 10 µM in series [3] of 66%.

Take `COc1ccccc1CNC(=O)c1cccc(NCc2nnc(-c3ccncc3)[nH]2)c1`: the IC50 in series [1] is 85 nM; in series [2] it was 3300 nM. The molecule also showed an inhibition at 10 µM in series [3] of 95%.

As to `O=C(NCc1ccccc1)c1cccc(NCc2nnc(-c3ccncc3)o2)c1`, the concentration for half-maximal inhibition (IC50) is 320 nM in series [1] and above 10000 nM in series [2]. In series [3], this molecule registered an inhibition at 10 µM of 43%.

On to `O=C(NCc1ccccc1)c1cccc(NCc2nc(-c3ccncc3)cs2)c1`, for which the 50% inhibitory concentration (IC50) in series [1] is 22 nM; in series [2] it was above 10000 nM. Moreover, in series [3], the inhibition at 10 µM stood at 92%.

Regarding `Cn1c(CNc2cccc(C(=O)NCc3c(F)cccc3F)c2)nnc1-c1ccncn1`, the half-maximal inhibitory concentration (IC50) is 1900 nM in series [1] and above 10000 nM in series [2]. The molecule also came in with an inhibition at 10 µM in series [3] of 24%.

Consider `O=C(NCc1ccccc1)c1cccc(NCc2cc(-c3ccncc3)c[nH]2)c1`, for which the results for the half-maximal inhibitory concentration (IC50) in series [1] and in series [2] were 52 nM and above 10000 nM, respectively. In series [3], this molecule yielded an inhibition at 10 µM of 100%.

Regarding `O=C(NCc1ccccc1)c1cccc(NCc2cc(-c3ccncc3)no2)c1`, the results for the IC50 in series [1] and in series [2] were 130 nM and 8300 nM, respectively. In series [3], this molecule gave an inhibition at 10 µM of 92%.

These data come from ChEMBL document CHEMBL4038320 (J Med Chem, 2017).
